US5264423A, “Inhibitors for replication of retroviruses and for the expression of oncogene products” (The United States of America as represented by the …, priority 1992, dated 1993)
Entries after “also recorded” stand apart in the source; their conditions may differ.

How the values were obtained:
[1] = test system: exo- and endonuclease P1; assay: Nuclease susceptibility, P1 nuclease; format: in vitro ADME
From the text: (§1) Several oligodeoxynucleotides were studied with regard to DNase sensitivity, cf. Table 5. These include cytidine homopolymers, ODN-4 (an anti-message 28-mer complementary to the 3' region of the art/trs region of HIV BH10 clone), and myc-1 (a 15-mer complementary to the initiation codon region of the C-myc oncogene). The DNases employed were predominantly endonuclease S1, the exo- and endonuclease P1, and snake venom (SV) phosphodiesterase. The concentration of S1 nuclease was ten-fold higher (100 micromoles/ml) for reactions of oligo-dc, since both the normal and PS analog were degraded extremely slowly be this enzyme. S1 and P1 nuclease digestion proceeded at 2-45 times more slowly for the S-ODNs than for the normal oligomers, with the […] being somewhat more readily digested than the 28-mer.

[2] = test system: snake venom (SV) phosphodiesterase; assay: Nuclease susceptibility, snake venom phosphodiesterase; format: in vitro ADME
From the text: as §1

[3] = test system: HL60 cells; assay: HL60 cell growth (cell count); format: cell-based; details: in words
[4] = test system: HIV (HTLV-IIIB) in ATH8 cells; assay: HIV cytopathic effect inhibition (viable ATH8 cells, trypan blue); details: for anti-HIV activity (cytopathic effect): in words; for protection of target cells, single agent: each agent alone (2 micromoles dideoxyadenosine; 5 micromoles S-dC14), 1000 virions per cell, day 13
Method: FIGS. 1A-1D and Table 1, The target cells (2×10^5 ATH8 cells) in each tube were pretreated with the stated concentration of each oligomer for 16 hours and then incubated with Polybrene for 45 minutes. After centrifugation, each set of pelleted cells was exposed to HIV (500 virions per cell, which is a much higher dose than the minimal cytopathic dose) and incubated for one hour. Complete media (2 ml RPMI1640) supplemented with L-glutamine (4 mti), 2-mercaptoethanol ([…]), penicillin (50 unit/ml), and streptomycin (50 micrograms/ml), and containing 15% fetal calf serum and IL-2 (15% of conventional IL-2 from Advanced Biotechnologies, Inc., Silver Spring, MD, plus 20 unit/ml of recombinant IL-2 from Amgen Biochemicals, Thousand Oaks, CA) with the various concentrations of oligomers added. The number of viable cells were counted in a hemocytometer using the trypan blue exclusion method for day 7 following exposure to the virus. Filled columns represent non-virus exposed cells, and dotted columns represent virus exposed cells.
The HIV cytopathic effect inhibition with oligodeoxynucleotides was performed with 18 hours of pretreatment of 2×10^5 target cells (ATH8 cells) with oligos prior to exposure to HTLV-IIIB. After this pretreatment, target cells were treated with Polybrene (2 micrograms/ml) for one hour. The target cells were then, respectively, exposed to HTLV-IIIB virus (generally 500 virions per cell in this series of experiments) for one hour. The 2×10^5 cells were then diluted to 2 ml with complete media containing IL-2 and various concentrations of oligos.
The number of viable cells was counted in a hemocytometer using the trypan blue exclusion method on day 7 following exposure to the virus. Each set of data were obtained from simultaneously performed experiments so as to make a precise comparison among agents tested.
The target cells (2×10^5 ATH8 cells per tube) were preincubated with the stated concentrations of S-dC14 for 24 hours and pretreated with 2 micrograms/ml of Polybrene for 45 minutes. After centrifugation, pelleted cells were exposed to the HIV (1000 virions per cell) for one hour. The cells were incubated in 2 ml of complete media containing IL-2, and the viable cells were counted on day 13.
On day 13 after the exposure to the virus, viable cells were counted by the trypan blue dye exclusion method.

[5] = test system: ATH8 cells; assay: Cytotoxicity of ODNs (Table 2); format: cell-based
From the text: Since phosphorothioate ODNs which are not anti-sense sequences appear to be very effective antiviral agents, an attempt was made to clarify the nature of the base composition effect.

[6] = Stability in in vitro test media followed by 31P NMR; format: in vitro ADME
From the text: The phosphorothioate oligodeoxynucleotides of the present invention have suitable chemical characteristics, namely, the ability to hybridize with complementary DNA/MRNA under physiological conditions, and better solubility properties relative to methylphosphonates. Moreover, the thioesters are as soluble in biological media as the parent compounds.
Thus, it is believed that it is mainly the relative resistance of the phosphorothioate analogs to nucleases that preserves them relative to n-ODNs, and allows them to reach and remain at their target site. This was supported in relation to the media used in the in vitro test system by following the 31P NMR spectra of the n-ODN-1 and S-ODN-1 compounds as a function of time.

[7] = test system: endonuclease S1; assay: Nuclease susceptibility, S1 nuclease; format: in vitro ADME
From the text: as §1

[8] = Stability in human serum; format: in vitro ADME; details: 31P NMR
[9] = test system: gamma-interferon; assay: Induction of gamma-interferon in culture supernatant; format: cell-based; details: supernatant of the culture
From the text: Another mechanism which should be considered is induction of interferon production such as that proposed for phosphorothioate analogs of poly-r(I-C). […] Also, since there are no data to support the concept that phosphorothioate internucleotide linkages have a thiol character, and can thus form disulfides, the mechanism of action would likely be different from that proposed for antiviral polynucleotides having thiolated bases such as 5-mercapto-cytosine or -uracil.

[10] = test system: de novo HIV DNA synthesis in ATH8 cells; assay: Southern blot of de novo HIV DNA synthesis; format: cell-based; details: positive control, 50 micromoles (lanes E and J)
From the text: Target cells (1×10^7 ATH8 cells) were pretreated with or without S-dC28 at various concentrations for sixteen hours, then treated with Polynrene, exposed to HIV (500 virus particles per cell), resuspended, and cultured in the presence or absence of S-dC28. On days 4 and 7 following the exposure to the virus, high molecular weight DNA was extracted, digested with Asp718 (a Kpn I isoschizomer from Boehringer-tiannheim, Indianapolis, IN), and subjected to Southern blot analysis hybridized with a labelled insert of molecular clone of the env region of HTLV-III (BH10) containing a 1.3 Kb Bgl II fragment.
FIGS. 6A-6D show the inhibitor effect of the phosphorothioate oligodeoxycytidine analog (S-dC28) on de novo HIV DNA synthesis in target cells. On days 4 and 7 following the exposure to the virus, a substantial amount of viral DNA was detected by Southern blot analysis without antiviral agents.
On day 4, shown in lanes A-E, and day 7, shown in lanes F-J, following exposure to the virus, high molecular weight DNA was extracted. Lanes A and F contain DNA from ATH8 cells that were exposed to the virus and not protected by S-dC28. Lanes B and G, C and H, D and I, contain DNA from ATH8 cells pretreated and cultured with 1 micromole, 5 micromoles, and 7 micromoles S-dC28, respectively. Lanes E and J contain DNA from ATH8 cells treated with 50 micromoles 2', 3'-dideoxyadenonsine, and lane K contains DNA from ATH8 cells that was not exposed to the virus.

Compound | ANTI-VIRAL EFFECT (%) ([4]; 1 uM) | ANTI-VIRAL EFFECT (%) ([4]; 5 uM) | ANTI-VIRAL EFFECT (%) ([4]; 10 uM) | ANTI-VIRAL EFFECT (%) ([4]; 25 uM) | CYTOTOXICITY (%) ([5]; 1 uM) | CYTOTOXICITY (%) ([5]; 5 uM) | CYTOTOXICITY (%) ([5]; 10 uM) | CYTOTOXICITY (%) ([5]; 25 uM) | anti-HIV activity (cytopathic effect) [4] | further results
dTCGTCGCTGTCTCCGCTTCTTCCTGCCA [O-ODN-4, reference compound] |  |  |  |  |  |  |  |  |  | Nuclease susceptibility, t1/2 [1]: 72 s; Nuclease susceptibility, t1/2 [2]: 20 s
5'-CTG AAG TGG CAT GAG (CTGAAGTGGCATGAG; all phosphorothioate, sugars by position and methylation of C not given here) [non-sense sequence, reference compound] |  |  |  |  |  |  |  |  |  | effect on HL60 cell proliferation [3]: none of the controls used, namely, the non-sense sequence, has shown similar activity; effect on HL60 cell proliferation ([3]; listed as nonsense S-ODN): not all nonsense S-ODN concentrations affected cell proliferation
recombinant gamma-interferon: recombinant alpha- or gamma-interferon |  |  |  |  |  |  |  |  |  | inhibition of the cytopathic effect ([4]; 1000 units added directly to the cultures): did not inhibit the cytopathic effect
d-(Cs As Ts As Gs Gs As Gs As Ts Gs Cs Cs T) [S-ODN-3] | 0 | 6 | 44 | 94 | 0 | 0 | 0 | 13 |  | 
d-(Ts Cs Gs Ts Cs Gs Cs Ts Gs Ts Cs Ts Cs C) [S-ODN-1] | 0 | 43 | 72 | 95 | 0 | 0 | 0 | 20 | substantial activity against HIV; also recorded: protected against HIV | phosphorothioate bonds after 10 days ([6]; 10 days): still intact after 10 days; decomposition based on the total signal intensity ([6]; after 10 days): less than 5%; degradation / half-life in media used in the in vitro test system ([6]; up to a week): no significant degradation even after a week
Nc1ccn([C@H]2CC[C@@H](CO)O2)c(=O)n1 [2', 3'-dideoxycytidine, reference compound] |  |  |  |  |  |  |  |  |  | protection against the virus / antiviral activity ([4]; 0.5 micromoles): complete antiviral activity
dAACGTTGAGGGGCAT [O-myc-1, reference compound] |  |  |  |  |  |  |  |  |  | Nuclease susceptibility, t1/2 [7]: 36 s; Nuclease susceptibility, t1/2 [1]: 69 s; Nuclease susceptibility, t1/2 [2]: 28 s; half-life in 50% human serum [8]: two to three days
(dC)n n = 14 [S-dC14] | 25 | 100 | 100 | 100 | 0 | 0 | 0 | 0 | most potent antiviral compound among those tested in this series of experiments | protection against the virus ([4]; 5 micromoles (65 micromole equivalents), FIGS. 6B-6D): only a moderate effect; protection of target cells, single agent [4]: only marginal protective effects; anti-HIV activity (cytopathic effect) ([4]; listed as 14-mer oligo-dc): substantial protection against HIV cytopathic effect; induction of gamma-interferon [9]: No induction of gamma-interferon
Nc1ncnc2c1ncn2[C@H]1CC[C@@H](CO)O1 [2', 3'-dideoxyadenosine, reference compound] |  |  |  |  |  |  |  |  |  | protection of target cells, single agent [4]: only marginal protective effects; inhibition of de novo synthesis of viral DNA [10]: significantly inhibited the de novo synthesis of viral DNA; inhibition of de novo synthesis of viral DNA ([10]; listed as 2', 3'-dideoxyadenonsine): detected only in lanes A and F
d-(Gs Gs As Gs As Cs As Gs Cs Gs As Cs Gs A) [S-ODN-2] | 11 | 56 | 100 | 78 | 0 | 0 | 0 | 6 | protected against HIV | 
